Measurements published in article PMC8047729, “Identification of a nanomolar affinity α-synuclein fibril imaging probe by ultra-high throughput in silico screening” (Chemical Science, 2020).
“Also recorded” adds a separate entry of the source.

Experiments:
αS fibrils [1] = molecular target: T1, αS fibrils (Homo sapiens, UniProt P37840); experiment: Photo-crosslinking assay with MALDI-MS of tryptic digest; format: binding; conditions: 100 μM crosslinker, 365 nm irradiation, trypsin digest MALDI-MS
Description: Photo-crosslinking assay. Aggregations of αS prepared as described above were transferred to a clear glass vial to assist in photo -crosslinking, and compounds ClX1, ClX2, or DMSO (as a vehicle control) were delivered to their respective vials (100 μM final concentrations). The resulting fibril-crosslinker or fibril-DMSO mixture was incubated for 1 h at 37 °C, and thereafter irradiated with long wave UV from a TLC lamp (365 nm) for 1 h. The irradiated fibrils were then boiled in SDS (25 mM final concentration), and subjected to CHCl3/MeOH precipitation to remove excess detergent and buffer as previously described.2 The translucent brown protein pellet was then resuspended in 40 μL of sterilized, Milli-Q water. At this point, the whole protein sample was subjected to MALDI-MS analuysis by spotting 1 μL of sample in 1μL of sinapic acid matrix, prepared as a saturated solution in a 50:50 mixture of ACN:H2O with 0.1% TFA. The remaining sample was digested using trypsin (Promega Corporation) at 37 °C overnight (50 mM NH4CO3, 1 mM CaCl2, 1:50-1:100 protein:trypsin ratio). The resulting tryptic peptide mixture was diluted 1:10 in sterile water with 0.1% TFA, and analyzed via MALDI-MS by spotting 1 μL of sample in 1 μL of CHCA matrix or DHB matrix, prepared as saturated solutions in a 50:50 mixture of ACN:H2O with 0.1% TFA. […]

[2] = molecular target: αS fibrils in mouse brain lysate (Homo sapiens, UniProt P37840); experiment: Photo-crosslinking and click labeling in mouse brain lysate; format: binding; conditions: 50 μM CLX2, 50 μM αS fibrils, 10 mg/ml lysate
Excerpt: Photo-crosslinking in Mouse Brain Lysate
Total Mouse Brain Protein Preparation. Mice were anesthetized using isoflurane gas in a closed chamber (AKORN, Lake Forest, IL, USA) followed by cervical dislocation. Brains were quickly dissected and snap-frozen in dry ice. Mouse brains were mechanically homogenized in five -fold excess (w/w) RIPA buffer (Thermo Fisher Scientific; Waltham, MA, USA ) using a ground glass tissue plunger. Homogenized sample was then subjected to probe sonication (Qsonica, Newtown, CT, USA) on ice using a microtip, at an amplitude of 50% at intervals of 10 s on 20 s off, for a total process-time (on-time) of 5 minutes. Crude lysate was then clarified by centrifugation at 10,000xg at 4 °C for 60 min. […] The lysate total protein concentration was then determined using the Bio-Rad detergent compatible (DC) protein assay […]
samples (50 µM final concentration), followed by “click -mix” (50 µM copper sulfate, 100 µM THPTA final concentration), sodium ascorbate (200 µM final concentration), and PBS to achieve a final volume of 200 µL. […] Samples were then analyzed via SDS-PAGE using a 4-12% Bis-Tris pre-cast gel (NuPAGE, Thermo Fisher Scientific). αS monomer labeled with BODIPY-FL maleimide (prepared as previously described13) was used as a control. […]

[3] = test system: A53T and control mouse brain sections; format: binding
Aβ42 fibrils = Aβ42 fibrils (Homo sapiens, UniProt P05067)
Description: (§1) αS (50 nM) or Aβ42 (100 nM) fibrils were incubated for 1 h at 37 °C with increasing concentrations of [^125I]61 in 50 mM Tris–HCl, pH 7.4, in a total volume of 150 μL. Nonspecific binding was determined in a duplicate set of binding reactions containing 2 μM non-radioactive 61. After incubation, bound and free radioligand were separated by vacuum filtration through Whatman GF/C filters in a 24-sample harvester system, followed by washing with buffer containing 10 mM Tris–HCl (pH 7.4) and 150 mM NaCl. Filters containing the bound ligand were counted immediately on 2470 WIZARD Automatic Gamma Counter. All data points were collected in triplicate. The equilibrium dissociation constant (Kd) and the maximal number of binding sites (Bmax) were determined by fitting the data to the equation Y = Bmax × X/(Kd + X), using GraphPad Prism software.
(§2) Saturation binding assay. αS (50 nM) or Ab42 (100 nM) fibrils were incubated for 1 h at 37 °C
(§3) with increasing concentrations of [125I]61 in 50 mM Tris-HCl, pH 7.4, in a total volume of 150
(§4) µL. Nonspecific binding was determined in a duplicate set of binding reactions containing 2 µM
unlabeled 61. To measure the amount of radioligand binding to the filter paper, fibrils were […]
10 mM Tris-HCl (pH 7.4) and 150 mM NaCl. Filters containing the bound ligand were counted […]
binding sites (Bmax) were determined by globally fitting the total binding and nonspecific binding […]

αS fibrils [4] = molecular target: T1, αS fibrils
Description: as §1, §2, §3, §4
unlabeled 61. To measure the amount of radioligand binding to the filter paper, fibrils were
replaced with equal volume of buffer in a duplicate set of binding reactions. After incubation,
bound and free radioligand were separated by vacuum filtration through Whatman GF/C filters
(Brandel) in a 24-sample harvester system (Brandel), followed by washing with buffer containing
10 mM Tris-HCl (pH 7.4) and 150 mM NaCl. Filters containing the bound ligand were counted
immediately on 2470 WIZARD Automatic Gamma Counter (Perkin Elmer). All data points were
acquired in triplicate. The equilibrium dissociation constant (Kd) and the maximal number of
binding sites (Bmax) were determined by globally fitting the total binding and nonspecific binding
Y = Bmax*[X/(Kd+X)] + NS*X (S2)
where X is the concentration of ligand ([125I]61) and NS is nonspecific binding, using GraphPad
Prism software (San Diego, CA, USA).

Aβ42 fibrils, sequence (P05067 672-713 limits assumed): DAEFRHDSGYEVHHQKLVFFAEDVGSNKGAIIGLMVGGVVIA

Compound | Crosslinked site / peptide fragment on αS fibrils (αS fibrils [1]) | Binding by crosslinking and fluorescent azide labeling in mouse brain lysate [2] | Autoradiography signal in whole brain sections [3] | Kd (Aβ42 fibrils) [nM] | Kd (αS fibrils [4]) [nM] | Levels of non-specific binding (αS fibrils [4]; saturation binding experiments)
C#CCCC1(CCOc2ccc(OCC(=O)Nc3cc(-c4ccc(I)cc4)no3)cc2)N=N1 [ClX2] | residues 22-34; also recorded: Site 2 | binding to αS fibrils, but also to many other proteins in mouse brain lysate |  |  |  | 
Cc1ccc(OCC(=O)Nc2cc(-c3ccc([125I])cc3)no2)cc1C [[^125I]61] |  |  | increased signal in A53T mouse brain in αS-rich regions compared with the control | 4.56 | 1.06 | relatively high
